The values below are quoted from earlier work in US9827315B2, “Compositions of pharmaceutical actives containing diethylene glycol monoethyl ether or other alkyl derivatives” (THEMIS MEDICARE LIMITED, priority 2013, dated 2017).

Converted amounts (≈) assume the structure as drawn. Counter-ions that a name gives are not always drawn.

For one data set the following is noted: at 25° C.; cited from earlier work.
Consider `CCCCCCCC/C=C\CCCCCCCC(=O)OCC` [Ethyl oleate], for which the viscosity of vehicle is 3.9 Cps.

The data set is the same for the next values; noted with them: at pH 7.0; cited from earlier work.
Regarding `COC(=O)[C@@H]1CC2=CC(=O)CC[C@]2(C)[C@@]23O[C@@H]2C[C@@]2(C)[C@@H](CC[C@@]24CCC(=O)O4)[C@H]13` [Eplerenone, pregn-4-ene-7,21-dicarboxylic acid, 9,11-epoxy-17-hydroxy-3-oxo, γ-lactone, methyl ester (7α, 11α, 17α)], the octanol/water partition coefficient result is reported as “approximately 7.1”.

Staying with this data set, now noted: dissolved in 30 ml water; cited from earlier work.
Consider `CC[C@H]1OC(=O)[C@H](C)[C@@H](O[C@H]2C[C@@](C)(OC)[C@@H](O)[C@H](C)O2)[C@H](C)[C@@H](O[C@@H]2O[C@H](C)C[C@H](N(C)C)[C@H]2O)[C@](C)(O)C[C@@H](C)/C(=N\OCOCCOC)[C@H](C)[C@@H](O)[C@]1(C)O` [Roxithromycin, (3R,4S,5S,6R,7R,9R,11S,12R,13S,14R)-6-[(2S,3R,4S,6R)-4-d-3-hydroxy-6-methyloxan-2-yl]oxy-14-ethyl-7,12,13-trihydroxy-4-[(2R,4R,5S,6S)-5-hydroxy-4-methoxy-4,6-dimethyloxan-2-yl]oxy-10-(2-methoxyethoxymethoxyimino)-3,5,7,9,11,13-hexamethyl-1-oxacyclotetradecan-2-one], for which the water solubility is listed as 0.1 g.

Still in this data set, the particulars now being: water; cited from earlier work.
As for `COc1ccccc1OCC(O)COC(N)=O` (stereo not drawn) [Methocarbamol, 3-(2-methoxyphenoxy)-1,2-propanediol 1-carbamate], the “Solubility in water (descriptive)” value is recorded as “sparingly soluble”.

In the case of `O=C1[C@H](CC[C@H](O)c2ccc(F)cc2)[C@@H](c2ccc(O)cc2)N1c1ccc(F)cc1` [Ezetimibe], the “Solubility in water (descriptive)” value is “Freely to very soluble in ethanol, methanol, and acetone and practically insoluble in water”.

Consider `CC[C@H]1OC(=O)[C@H](C)[C@@H](O[C@H]2C[C@@](C)(OC)[C@@H](O)[C@H](C)O2)[C@H](C)[C@@H](O[C@@H]2O[C@H](C)C[C@H](N(C)C)[C@H]2O)[C@](C)(O)C[C@@H](C)/C(=N\OCOCCOC)[C@H](C)[C@@H](O)[C@]1(C)O` [Roxithromycin, (3R,4S,5S,6R,7R,9R,11S,12R,13S,14R)-6-[(2S,3R,4S,6R)-4-d-3-hydroxy-6-methyloxan-2-yl]oxy-14-ethyl-7,12,13-trihydroxy-4-[(2R,4R,5S,6S)-5-hydroxy-4-methoxy-4,6-dimethyloxan-2-yl]oxy-10-(2-methoxyethoxymethoxyimino)-3,5,7,9,11,13-hexamethyl-1-oxacyclotetradecan-2-one], for which the “Solubility in water (descriptive)” value was “almost insoluble”.

For `CN1C(C(=O)Nc2ccccn2)=C(O)c2sc(Cl)cc2S1(=O)=O` [Lornoxicam, (3E)-6-chloro-3-[hydroxy(pyridin-2-ylamino)methylene]-2-methyl-2,3-dihydro-4H-thieno[2,3-e][1,2]thiazin-4-one 1,1-dioxide], the “Solubility in water (descriptive)” value was “hardly soluble”.

`CCOC(=O)C1=C(COCCN)NC(C)=C(C(=O)OC)C1c1ccccc1Cl` (racemic) [Amlodipine besylate, 3-Ethyl-5-methyl(±)-2-[(2-aminoethoxy)methyl]4-(2-chlorophenyl)-1,4-dihydro-6-methyl-3,5-pyridinedicarboxylate, mono benzene sulphonate]: the “Solubility in water (descriptive)” value is given as “slightly soluble”.

Turning to `CCCC(=O)OCOC(=O)C1=C(C)NC(C)=C(C(=O)OC)[C@H]1c1cccc(Cl)c1Cl` [Clevidipine, O3-(butanoyloxymethyl) O5-methyl (4R)-4-(2,3-dichlorophenyl)-2,6-dimethyl-1,4-dihydropyridine-3,5dicarboxylate], the “Solubility in water (descriptive)” value is “practically insoluble”.

Regarding `COC(=O)[C@@H]1CC2=CC(=O)CC[C@]2(C)[C@@]23O[C@@H]2C[C@@]2(C)[C@@H](CC[C@@]24CCC(=O)O4)[C@H]13` [Eplerenone, pregn-4-ene-7,21-dicarboxylic acid, 9,11-epoxy-17-hydroxy-3-oxo, γ-lactone, methyl ester (7α, 11α, 17α)], the “Solubility in water (descriptive)” value was “very slightly soluble”.

For the molecule `C[C@]12Cc3c[nH]nc3C[C@@H]1CC[C@@H]1[C@@H]2CC[C@@]2(C)[C@H]1CC[C@]2(C)O` [Stanozolol], the “Solubility in water (descriptive)” value is reported as “practically insoluble”.

For the molecule `C[C@H]1[C@H](OC(=O)CCC(=O)[O-])O[C@@H]2O[C@@]3(C)CC[C@H]4[C@H](C)CC[C@@H]1[C@@]24OO3.[Na+]` [sodium Artesunate], the “Solubility in water (descriptive)” value is “soluble”.

`COC(=O)C1=C(C)NC(C)=C(C(=O)O[C@@H]2CCCN(Cc3ccccc3)C2)C1c1cccc([N+](=O)[O-])c1` (stereo partly drawn) [Benidipine Hydrochloride, O5-methyl O3-[(3R)-1-(phenylmethyl)piperidin-3-yl]2,6-dimethyl-4-(3-nitrophenyl)-1,4-dihydropyridine-3,5-dicarboxylate]: the “Solubility in water (descriptive)” value is listed as “practically insoluble”.

As to `C=C(c1ccc(C(=O)O)cc1)c1cc2c(cc1C)C(C)(C)CCC2(C)C` [Bexarotene], the “Solubility in water (descriptive)” value was “Insoluble in water and slightly soluble in vegetable oils and ethanol, USP”.

The data set is the same for the next values; noted with them: with slight warming; cited from earlier work.
Take `COc1cccc2c1C(=O)c1c(O)c3c(c(O)c1C2=O)C[C@@](O)(C(=O)CO)C[C@@H]3O[C@H]1C[C@H](N)[C@H](O)[C@H](C)O1` [Doxorubicin]: the solubility in water is 10000 µg/mL (≈ 18.4 mM).
